Source: patent publication US20240376126A1, “PRMT5 INHIBITOR AND THE USE THEREOF” (CYTOSINLAB THERAPEUTICS CO., LTD., priority 2022, published 2024)

Columns and labels:
HCT116 MTAP WT cells = assay: Proliferation inhibition of HCT116 cells in vitro (CellTiter Glo, 6 days); assay type: cell-based; conditions: Homo sapiens, HCT-116, 144 h, read-out: Cell proliferation inhibition rate HCT116 MTAP WT IC50 (nm)
[1] = system: HCT116-MTAP-KO (MTAP null) cells; assay: Proliferation inhibition of HCT116 MTAP-KO cells in vitro (CellTiter Glo, 6 days); assay type: cell-based; conditions: HCT116-MTAP null, 144 h, read-out: Cell proliferation inhibition rate HCT116-MTAP null IC50 (nm)

Structure (SMILES)	IC50 (HCT116 MTAP WT cells) [nM]	IC50 [1] [nM]
Cc1ncc2c(N)nc3cc(F)c(C(=O)N(Cc4cn5cc(C(F)(F)C(F)(F)F)ccc5n4)CC(C)C)cc3n12 [Example 182]	100 to 1000	< 100
Cc1ncc2c(N)nc3cc(F)c(C(=O)N(Cc4cn5cc(C(F)(F)F)ccc5n4)c4cnn(C)c4)cc3n12 [Example 183]	1000 to 10000	< 100
CCN(Cc1cn2ccccc2n1)C(=O)c1cc2c(cc1F)nc(N)c1cnc(C)n12 [Example 184]	1000 to 10000	100 to 1000
COC1CCCC1N(Cc1cn2ccccc2n1)C(=O)c1cc2c(cc1F)nc(N)c1cnc(C)n12 (stereo not shown) [Example 185]	1000 to 10000	< 100
Cc1cn2c(n1)c(N)nc1cc(F)c(C(=O)N(Cc3nc4ccccn4c3F)CC(C)C)cc12 [Example 188]	1000 to 10000	< 100
Cc1ncc2c(N)nc3cc(F)c(C(=O)N(Cc4cn5ccccc5n4)C4CCCC4O)cc3n12 (stereo not shown) [Example 190]	1000 to 10000	100 to 1000
CCN(Cc1cn2ccccc2n1)C(=O)c1cc2c(cc1Cl)nc(N)c1cnc(C)n12 [Example 192]	1000 to 10000	100 to 1000
Cc1ncc2c(N)nc3cc(F)c(C(=O)N(Cc4nc5ccccn5c4F)CC(C)C)cc3n12 [Example 194]	1000 to 10000	< 100
Cc1ncc2c(N)nc3cc(F)c(C(=O)N(Cc4cn5cccc(C(F)(F)F)c5n4)c4cnn(C)c4)cc3n12 [Example 195]	1000 to 10000	100 to 1000
Cc1ncc2c(N)nc3cc(F)c(C(=O)N(Cc4cn5ccccc5n4)c4cccnc4)cc3n12 [Example 199]	1000 to 10000	100 to 1000
Cc1ncc2c(N)nc3cc(F)c(C(=O)N4C(c5cc6ccccn6n5)COC[C@H]4C)cc3n12 (stereo partly shown) [Example 203]	1000 to 10000	< 100
Cc1ncn2c1c(N)nc1cc(F)c(C(=O)N(Cc3nc4ccccn4c3F)c3cnn(C)c3)cc12 [Example 205]	1000 to 10000	< 100
CCN(Cc1cn2cc(C(F)(F)F)ncc2n1)C(=O)c1cc2c(cc1F)nc(N)c1c(C)ncn12 [Example 207]	1000 to 10000	< 100
CCN(Cc1nc2ccccn2c1F)C(=O)c1cc2c(cc1F)nc(N)c1c(C)ncn12 [Example 209]	1000 to 10000	< 100
Cc1ncc2c(N)nc3cc(Cl)c(C(=O)N(Cc4cn5cc(C(F)(F)F)ccc5n4)c4cnn(C)c4)cc3n12 [Example 210]	1000 to 10000	100 to 1000
Cc1ncc2c(N)nc3cc(F)c(C(=O)N(Cc4cc5c(cn4)COC5)c4cnn(C)c4)cc3n12 [Example 211]	1000 to 10000	100 to 1000
CCN(Cc1cn2nc(C(F)(F)F)ccc2n1)C(=O)c1cc2c(cc1F)nc(N)c1c(C)ncn12 [Example 213]	1000 to 10000	100 to 1000
CCN(Cc1cc2c(cn1)OCC2)C(=O)c1cc2c(cc1F)nc(N)c1cnc(C)n12 [Example 214]	1000 to 10000	100 to 1000
CCN(C(=O)c1cc2c(cc1F)nc(N)c1c(C)ncn12)C1COc2cc(C(F)(F)F)ccc21 (stereo not shown) [Example 215]	1000 to 10000	< 100
CCN(Cc1ccc2c(c1)CCO2)C(=O)c1cc2c(cc1F)nc(N)c1cnc(C)n12 [Example 216]	1000 to 10000	100 to 1000
CCN(Cc1cn2cc(CCN3CCOCC3)ccc2n1)C(=O)c1cc2c(cc1F)nc(N)c1cnc(C)n12 [Example 217]	1000 to 10000	100 to 1000
CCN(Cc1cc2ccc(C(F)(F)F)cn2n1)C(=O)c1cc2c(cc1F)nc(N)c1c(C)ncn12 [Example 218]	1000 to 10000	< 100
Cc1ncc2c(N)nc3cc(F)c(C(=O)N(Cc4ccc5c(c4)CCO5)c4cnn(C)c4)cc3n12 [Example 219]	1000 to 10000	100 to 1000
Cc1ncn2c1c(N)nc1cc(F)c(C(=O)N(c3cnn(C)c3)C3COc4ccccc43)cc12 (stereo not shown) [Example 221]	1000 to 10000	< 100
CCN(C(=O)c1cc2c(cc1F)nc(N)c1cnc(C)n12)C1COc2cc(C(F)(F)F)ccc21 (stereo not shown) [Example 222]	1000 to 10000	< 100
CCN(C(=O)c1cc2c(cc1F)nc(N)c1c(C)ncn12)C1COc2cc(-c3cccnc3)ccc21 (stereo not shown) [Example 223]	1000 to 10000	100 to 1000

The remaining lines, values ahead:

IC50 (HCT116 MTAP WT cells) [nM]	IC50 [1] [nM]	Structure (SMILES)
1000 to 10000	100 to 1000	CCN(C(=O)c1cc2c(cc1F)nc(N)c1c(C)ncn12)C1COc2ccccc21 (stereo not shown) [Example 224]
1000 to 10000	< 100	Cc1ncc2c(N)nc3cc(F)c(C(=O)N(c4cnn(C)c4)C4COc5ccccc54)cc3n12 (stereo not shown) [Example 225]
1000 to 10000	100 to 1000	Cc1ncn2c1c(N)nc1cc(F)c(C(=O)N(C)C3COc4cc(-c5cnn(C)c5)ccc43)cc12 (stereo not shown) [Example 226]
1000 to 10000	< 100	Cc1nn(C)cc1N(Cc1cc2ccccn2n1)C(=O)c1cc2c(cc1F)nc(N)c1cnc(C)n12 [Example 227]
1000 to 10000	100 to 1000	CCN(C(=O)c1cc2c(cc1F)nc(N)c1c(C)ncn12)C1COc2cc(Br)cnc21 (stereo not shown) [Example 228]
1000 to 10000	< 100	COc1ccc(N(Cc2cn3ccccc3n2)C(=O)c2cc3c(cc2F)nc(N)c2cnc(C)n23)cn1 [Example 229]
1000 to 10000	100 to 1000	Cc1ncc2c(N)nc3cc(F)c(C(=O)N(Cc4cn5cc(C(F)(F)F)ccc5n4)C4CCOC4)cc3n12 (stereo not shown) [Example 230]
1000 to 10000	100 to 1000	Cc1nn(C)cc1N(Cc1cn2ncccc2n1)C(=O)c1cc2c(cc1F)nc(N)c1cnc(C)n12 [Example 231]
1000 to 10000	100 to 1000	Cc1ncc2c(N)nc3cc(F)c(C(=O)N(Cc4cc5ccccn5n4)C4CCOC4)cc3n12 (stereo not shown) [Example 232]
1000 to 10000	< 100	Cc1nn(C)cc1N(Cc1cn2cc(C(F)(F)F)ccc2n1)C(=O)c1cc2c(cc1F)nc(N)c1c(C)ncn12 [Example 233]
1000 to 10000	< 100	Cc1nn(C)cc1N(Cc1cn2cc(C(F)(F)F)ccc2n1)C(=O)c1cc2c(cc1F)nc(N)c1cnc(C)n12 [Example 234]
< 100	< 100	Cc1nn(C)cc1N(Cc1cc2ccc(C(F)(F)F)cn2n1)C(=O)c1cc2c(cc1F)nc(N)c1c(C)ncn12 [Example 235]
1000 to 10000	< 100	Cc1nn(C)cc1N(Cc1cc2ccc(C(F)(F)F)cn2n1)C(=O)c1cc2c(cc1F)nc(N)c1cnc(C)n12 [Example 236]
1000 to 10000	100 to 1000	Cc1nn(C)cc1N(Cc1nc2ccccc2[nH]1)C(=O)c1cc2c(cc1F)nc(N)c1c(C)ncn12 [Example 237]
1000 to 10000	< 100	Cc1ncc2c(N)nc3cc(F)c(C(=O)N(Cc4cn5cc(C(F)(F)F)ccc5n4)c4ccnn4C)cc3n12 [Example 239]
100 to 1000	< 100	Cc1ncc2c(N)nc3cc(F)c(C(=O)N(Cc4cn5cc(C(F)(F)F)ccc5n4)c4c(F)cnn4C)cc3n12 [Example 241, 4-amino-7-fluoro-N-(4-fluoro-2-methyl-pyrazol-3-yl)-1-methyl-N-[[6-(trifluoromethyl)imidazolo [1,2-a]pyridin-2-yl]methyl] imidazolo [1,5-a] quinoxalin-8-carboxamide]
100 to 1000	< 100	CCn1nccc1N(Cc1cn2cc(C(F)(F)F)ccc2n1)C(=O)c1cc2c(cc1F)nc(N)c1cnc(C)n12 [Example 242]

IC50 (HCT116 MTAP WT cells) [nM]	IC50 [1] [nM]	Structure (SMILES)
1000 to 10000	100 to 1000	Cc1ncc2c(N)nc3cc(F)c(C(=O)N(Cc4cn5cc(CN6CCOCC6)ccc5n4)c4ccnn4C)cc3n12 [Example 243]
1000 to 10000	< 100	Cc1ncc2c(N)nc3cc(F)c(C(=O)N(Cc4cn5ccccc5n4)c4ccnn4C)cc3n12 [Example 244]
1000 to 10000	< 100	Cc1ncc2c(N)nc3cc(F)c(C(=O)N(Cc4nc5ccc(C(F)(F)F)cc5[nH]4)c4ccnn4C)cc3n12 [Example 245]
1000 to 10000	< 100	Cc1ncc2c(N)nc3cc(F)c(C(=O)N(Cc4cn5cc(C(F)(F)F)ccc5n4)c4ccnn4C(F)F)cc3n12 [Example 246]
1000 to 10000	100 to 1000	CCN(Cc1cn2cc(-c3cnn(C)c3)ccc2n1)C(=O)c1cc2c(cc1F)nc(N)c1cnc(C)n12 [Example 247]
1000 to 10000	100 to 1000	CCN(Cc1cn2cc(CN3CCOCC3)ccc2n1)C(=O)c1cc2c(cc1F)nc(N)c1c(C)ncn12 [Example 249]
1000 to 10000	< 100	CCN(Cc1cc2ccccn2n1)C(=O)c1cc2c(cc1F)nc(N)c1cnc(C)n12 [Example 250]
1000 to 10000	100 to 1000	Cc1ncc2c(N)nc3cc(F)c(C(=O)N(Cc4cn5ccccc5n4)CC(F)F)cc3n12 [Example 252]
1000 to 10000	100 to 1000	Cc1ncn2c1c(N)nc1cc(F)c(C(=O)N(Cc3cn4cc(C#N)ccc4n3)c3cnn(C)c3)cc12 [Example 253]
1000 to 10000	100 to 1000	Cc1ncn2c1c(N)nc1cc(F)c(C(=O)N(Cc3cn4cc(CN5CCOCC5)ccc4n3)c3cnn(C)c3)cc12 [Example 254]
1000 to 10000	100 to 1000	Cc1ncn2c1c(N)nc1cc(F)c(C(=O)N(Cc3cn4ccccc4n3)c3cnn(C)c3C)cc12 [Example 255]
1000 to 10000	100 to 1000	Cc1ncn2c1c(N)nc1cc(F)c(C(=O)N(Cc3cn4ccccc4n3)c3cnn(C)c3)cc12 [Example 257]
1000 to 10000	100 to 1000	CCN(Cc1cn2cc(-c3cnn(C)c3)ccc2n1)C(=O)c1cc2c(cc1F)nc(N)c1c(C)ncn12 [Example 258]
1000 to 10000	< 100	Cc1ncn2c1c(N)nc1cc(F)c(C(=O)N(Cc3cn4cc(C(F)(F)F)ccc4n3)c3cnn(C)c3)cc12 [Example 259]
1000 to 10000	100 to 1000	Cc1ncn2c1c(N)nc1cc(F)c(C(=O)N(Cc3cn4ccccc4n3)C3CCC3O)cc12 (stereo not shown) [Example 261]
1000 to 10000	< 100	Cc1ncn2c1c(N)nc1cc(F)c(C(=O)N(Cc3cn4ccccc4n3)c3cnn(C)n3)cc12 [Example 262]
